# Measurements taken from US20070265261A1, “Dpp-IV Inhibitors” (priority 2004, published 2007).
# Target: T1, DPP-IV (Homo sapiens, UniProt P27487)
# T1 construct: Soluble human DPP-IV lacking the transmembrane anchor (Gly31-Pro766); Pre-Pro-alpha-mating factor leader (secretion signal) (N, cleaved yes); made in house
# Assay: Inhibition of DPP-IV peptidase activity, continuous fluorimetric assay (cleavage of Gly-Pro-AMC)
# Type: biochemical
# Procedure: Inhibition of DPP-IV peptidase activity was monitored with a continuous fluorimetric assay. This assay is based on the cleavage of the substrate Gly-Pro-AMC (Bachem) by DPP-IV, releasing free AMC. The assay is carried out in 96-well microtiter plates. In a total volume of 100 μL, compounds are preincubated with […] DPP-IV employing a buffer containing 10 mM Hepes, 150 mM NaCl, 0.005% Tween 20 (pH 7.4). […] The final concentration of DMSO is 1%. The inhibitory potential of the compounds were determined.
# Soluble human DPP-IV lacking the transmembrane anchor (Gly31-Pro766) was expressed in a recombinant YEAST-strain as Pre-Pro-alpha-mating fusion. The secreted product (rhuDPP-IV-Gly31-Pro766) was purified from fermentation broth (>90% purity).
# T1 sequence (P27487 31-766): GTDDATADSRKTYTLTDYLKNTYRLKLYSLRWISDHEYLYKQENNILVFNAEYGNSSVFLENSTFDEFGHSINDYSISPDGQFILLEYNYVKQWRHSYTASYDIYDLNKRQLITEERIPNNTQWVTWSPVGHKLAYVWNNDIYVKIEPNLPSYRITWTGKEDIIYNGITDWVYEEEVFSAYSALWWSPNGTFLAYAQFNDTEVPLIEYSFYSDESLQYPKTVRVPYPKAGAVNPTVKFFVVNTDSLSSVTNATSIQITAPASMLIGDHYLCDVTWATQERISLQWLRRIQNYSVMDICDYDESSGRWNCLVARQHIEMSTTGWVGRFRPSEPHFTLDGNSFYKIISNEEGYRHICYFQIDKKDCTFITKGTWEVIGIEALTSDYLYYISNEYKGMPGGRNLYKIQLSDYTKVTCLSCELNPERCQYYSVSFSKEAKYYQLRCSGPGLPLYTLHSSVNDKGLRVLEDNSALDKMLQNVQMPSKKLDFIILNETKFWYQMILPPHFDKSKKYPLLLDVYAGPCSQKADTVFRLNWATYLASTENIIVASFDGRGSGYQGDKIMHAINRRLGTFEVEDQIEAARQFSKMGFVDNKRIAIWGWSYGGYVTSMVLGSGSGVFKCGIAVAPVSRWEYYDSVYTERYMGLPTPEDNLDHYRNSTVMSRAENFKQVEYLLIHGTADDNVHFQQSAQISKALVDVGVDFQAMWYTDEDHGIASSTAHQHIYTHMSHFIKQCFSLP
row,IC50 [nM],Structure (SMILES)
1,< 100,"NC(Cc1cc(F)ccc1F)C1CCN(C(=O)N2CCC(F)(F)C2)CC1 (stereo not shown) [Example 74, {4-[1-Amino-2-(2 5-difluoro-phenyl)-ethyl]-piperidin-1-yl}-(3,3-difluoro-pyrrolidin-1-yl)-methanone]"
2,101 to 1000,NC(Cc1cccc(Cl)c1)C1CCN(C(=O)C2CCOC2)CC1 (stereo not shown) [Example 13]
3,< 100,NC(Cc1cc(F)ccc1F)C1CCN(C(=O)c2ccn(C(F)F)n2)CC1 (stereo not shown) [Example 56]
4,< 100,NC(Cc1cccc(Cl)c1)C1CCN(S(=O)(=O)c2ccccc2)CC1 (stereo not shown) [Example 35]
5,101 to 1000,NC(Cc1cccc(Cl)c1)C1CCN(C(=O)C2CC2)CC1 (stereo not shown) [Example 9]
6,< 100,Cn1cc(C(=O)N2CCC(C(N)Cc3cccc(Cl)c3)CC2)c(C(F)(F)F)n1 (stereo not shown) [Example 19]
7,101 to 1000,NC(Cc1cccc(Cl)c1)C1CCN(c2ncccn2)CC1 (stereo not shown) [Example 73]
8,< 100,NC(Cc1cccc(Cl)c1)C1CCN(S(=O)(=O)Cc2ccccc2)CC1 (stereo not shown) [Example 36]
9,101 to 1000,NC(Cc1cccc(Cl)c1)C1CCN(C(=O)C2(C(F)(F)F)CC2)CC1 (stereo not shown) [Example 16]
10,< 100,N[C@H](Cc1cc(F)cc(F)c1F)C1CCN(C(=O)c2ccnc(C(F)(F)F)n2)CC1 [Example 69]
11,101 to 1000,"N[C@@H](Cc1cc(F)ccc1F)C1CCN(C(=O)c2ccnc(C(F)(F)F)n2)CC1 (single isomer, unassigned) [Example 50]"
12,1000 to 2000,"N[C@@H](Cc1cc(F)ccc1F)C1CCN(C(=O)c2ccnn2C(F)F)CC1 (single isomer, unassigned) [Example 53]"
13,101 to 1000,Cn1cnc(C(=O)N2CCC(C(N)Cc3cccc(Cl)c3)CC2)c1 (stereo not shown) [Example 29]
14,< 100,"N[C@H](Cc1cccc(Cl)c1)C1CCN(C(=O)c2ncccn2)CC1 [Example 8, {4-[(R)-1-Amino-2-(3-chloro-phenyl)-ethyl]-piperidin-1-yl}-pyrimidin-2-yl-methanone]"
15,< 100,N[C@H](Cc1cc(F)ccc1F)C1CCN(C(=O)c2ncccn2)CC1 [Example 41]
16,1000 to 2000,"N[C@@H](Cc1cc(F)c(F)cc1F)C1CCN(C(=O)c2ccnc(C(F)(F)F)n2)CC1 (single isomer, unassigned) [Example 65]"
17,< 100,Cn1ncc(C(=O)N2CCC(C(N)Cc3cccc(Cl)c3)CC2)c1C(F)(F)F (stereo not shown) [Example 28]
18,101 to 1000,"N[C@@H](Cc1cc(F)ccc1F)C1CCN(C(=O)c2cnccn2)CC1 (single isomer, unassigned) [Example 44]"
19,< 100,N[C@H](Cc1cc(F)ccc1F)C1CCN(C(=O)c2ccnc(C(F)(F)F)n2)CC1 [Example 49]
20,1000 to 2000,"NC(Cc1cccc(Cl)c1)C1CCCNC1 (stereo not shown) [Example 71, 2-(3-Chloro-phenyl)-1-piperidin-3-yl-ethylamine]"
21,< 100,NC(Cc1cc(F)ccc1F)C1CCN(C(=O)c2cc(C(F)(F)F)ccn2)CC1 (stereo not shown) [Example 58]
22,< 100,NC(Cc1cc(F)ccc1F)C1CCN(S(=O)(=O)C2CC2)CC1 (stereo not shown) [Example 37]
23,< 100,Cn1nc(C(=O)N2CCC(C(N)Cc3cccc(Cl)c3)CC2)cc1C(F)(F)F (stereo not shown) [Example 30]
24,101 to 1000,"CC(C)(C)OC(=O)N1CCC(C(N)Cc2cccc(Cl)c2)CC1 (stereo not shown) [Example 6, 4-[1-Amino-2-(3-chloro-phenyl)-ethyl]-piperidine-1-carboxylic acid tert.-butyl ester]"

row,IC50 [nM],Structure (SMILES)
1,1000 to 2000,"N[C@@H](Cc1cc(F)ccc1F)C1CCN(C(=O)c2ccc(C(F)(F)F)nc2)CC1 (single isomer, unassigned) [Example 47]"
2,< 100,Cn1cncc1C(=O)N1CCC(C(N)Cc2cccc(Cl)c2)CC1 (stereo not shown) [Example 27]
3,< 100,N[C@H](Cc1cc(F)ccc1F)C1CCN(C(=O)c2ccnn2C(F)F)CC1 [Example 52]
4,< 100,N[C@H](Cc1cc(F)ccc1F)C1CCN(C(=O)c2ccc(C(F)(F)F)nc2)CC1 [Example 46]
5,< 100,NC(Cc1cc(F)ccc1F)C1CCN(C(=O)c2cnc(C(F)(F)F)nc2)CC1 (stereo not shown) [Example 54]
6,101 to 1000,NC(Cc1cccc(Cl)c1)C1CCN(C(=O)CC2CC2)CC1 (stereo not shown) [Example 12]
7,< 100,N[C@H](Cc1cc(F)ccc1F)C1CCN(C(=O)c2nccc(C(F)(F)F)n2)CC1 [Example 60]
8,< 100,NC(Cc1cc(F)ccc1F)C1CCN(C(=O)c2ccc(C(F)(F)F)nc2)CC1 (stereo not shown) [Example 48]
9,< 100,N[C@H](Cc1cc(F)c(F)cc1F)C1CCN(C(=O)c2ccnc(C(F)(F)F)n2)CC1 [Example 64]
10,< 100,NC(Cc1cccc(Cl)c1)C1CCN(C(=O)c2ccnnc2)CC1 (stereo not shown) [Example 22]
11,< 100,"CS(=O)(=O)Nc1cccc(C(=O)N2CCC(C(N)Cc3cccc(Cl)c3)CC2)c1 (stereo not shown) [Example 72, N-(3-{4-[1-Amino-2-(3-chloro-phenyl)-ethyl]-piperidine-1-carbonyl}-phenyl)-methane-sulphonamide]"
12,< 100,NC(Cc1cccc(Cl)c1)C1CCN(C(=O)c2cnccc2C(F)(F)F)CC1 (stereo not shown) [Example 32]
13,101 to 1000,N[C@@H](Cc1cc(F)ccc1F)C1CCN(C(=O)c2nccc(C(F)(F)F)n2)CC1 [Example 61]
14,< 100,NC(Cc1cccc(Cl)c1)C1CCN(C(=O)N2CCOCC2)CC1 (stereo not shown) [Example 75]
15,< 100,N[C@H](Cc1cc(F)ccc1F)C1CCN(C(=O)c2cnccn2)CC1 [Example 43]
16,< 100,"CC(C)(C)OC(=O)N1CCC(C(N)Cc2cc(F)ccc2F)CC1 (stereo not shown) [Example 40, 4-[1-Amino-2-(2,5-difluoro-phenyl)-ethyl]-piperidine-1-carboxylic acid tert-butyl ester]"
17,< 100,NC(Cc1cc(F)ccc1F)C1CCN(C(=O)c2ccnc(C(F)(F)F)n2)CC1 (stereo not shown) [Example 51]
18,< 100,NC(Cc1cc(F)ccc1F)C1CCN(C(=O)c2cccc(C(F)(F)F)n2)CC1 (stereo not shown) [Example 59]
19,101 to 1000,"CC(C)(C)OC(=O)N1CCCC(C(N)Cc2cccc(Cl)c2)C1 (stereo not shown) [Example 70, 3-[1-Amino-2-(3-chloro-phenyl)-ethyl]-piperidine-1-carboxylic acid tert.-butyl ester]"
20,< 100,NC(Cc1cc(F)ccc1F)C1CCN(C(=O)c2ncc(F)cc2F)CC1 (stereo not shown) [Example 55]
21,< 100,NC(Cc1cccc(Cl)c1)C1CCN(C(=O)c2ncccn2)CC1 (stereo not shown) [Example 20]
22,< 100,"N[C@H](Cc1cc(F)c(F)cc1F)C1CCN(C(=O)c2ncccn2)CC1 [Example 63, {4-[(R)-1-amino-2-(2,4,5-trifluoro-phenyl)-ethyl]-piperidine-1yl}-pyrimidine-2-yl-methanone]"
23,< 100,NC(Cc1cccc(Cl)c1)C1CCN(C(=O)c2ccn(C(F)F)n2)CC1 (stereo not shown) [Example 26]
24,101 to 1000,N[C@H](Cc1cc(F)cc(F)c1F)C1CCN(C(=O)c2ncccn2)CC1 [Example 68]

row,IC50 [nM],Structure (SMILES)
1,101 to 1000,"N[C@H](Cc1cccc(Cl)c1)C1CCNCC1 (stereo in doubt) [Example 7, 2-(3-Chloro-phenyl)-1-piperidin-4-yl-ethylamine]"
2,< 100,NC(Cc1cccc(Cl)c1)C1CCN(C(=O)N2CCCC2)CC1 (stereo not shown) [Example 76]
3,< 100,N[C@H](Cc1cc(F)c(F)cc1F)C1CCN(C(=O)c2ccc(C(F)(F)F)nc2)CC1 [Example 67]
4,101 to 1000,NC(Cc1cccc(Cl)c1)C1CCN(C(=O)c2cn[nH]c2)CC1 (stereo not shown) [Example 18]
5,< 100,NC(Cc1cccc(Cl)c1)C1CCN(C(=O)c2cncnc2)CC1 (stereo not shown) [Example 23]
6,101 to 1000,NC(Cc1cccc(Cl)c1)C1CCN(C(=O)Cc2ccccc2)CC1 (stereo not shown) [Example 14]
7,< 100,NC(Cc1cccc(Cl)c1)C1CCN(C(=O)c2ccc(C(F)(F)F)nc2)CC1 (stereo not shown) [Example 17]
8,< 100,Cc1cc(C(=O)N2CCC(C(N)Cc3cccc(Cl)c3)CC2)no1 (stereo not shown) [Example 24]
9,< 100,N[C@H](Cc1cc(F)ccc1F)C1CCN(S(=O)(=O)C2CC2)CC1 [Example 38]
10,< 100,NC(Cc1cccc(Cl)c1)C1CCN(C(=O)c2cnccn2)CC1 (stereo not shown) [Example 15]
11,< 100,NC(Cc1cc(F)ccc1F)C1CCN(C(=O)c2ncccc2C(F)(F)F)CC1 (stereo not shown) [Example 57]
12,< 100,NC(Cc1cccc(Cl)c1)C1CCN(C(=O)c2ccnn2C(F)F)CC1 (stereo not shown) [Example 25]
13,< 100,NC(Cc1cccc(Cl)c1)C1CCN(C(=O)c2ccccc2)CC1 (stereo not shown) [Example 10]
14,< 100,NC(Cc1cc(F)ccc1F)C1CCN(C(=O)c2cnccn2)CC1 (stereo not shown) [Example 45]
15,1000 to 2000,N[C@@H](Cc1cc(F)ccc1F)C1CCN(C(=O)c2ncccn2)CC1 [Example 42]
16,101 to 1000,NC(Cc1cccc(Cl)c1)C1CCN(C(=O)c2cc(C(F)(F)F)n[nH]2)CC1 (stereo not shown) [Example 33]
17,< 100,NC(Cc1cccc(Cl)c1)C1CCN(C(=O)c2cccnc2)CC1 (stereo not shown) [Example 11]
18,101 to 1000,N[C@@H](Cc1cc(F)ccc1F)C1CCN(S(=O)(=O)C2CC2)CC1 [Example 39]
19,1000 to 2000,N[C@@H](Cc1cccc(Cl)c1)C1CCN(C(=O)c2ncccn2)CC1 [Example 21]
20,< 100,NC(Cc1cc(F)c(F)cc1F)C1CCN(C(=O)c2ccnc(C(F)(F)F)n2)CC1 (stereo not shown) [Example 66]
21,< 100,"NC(Cc1cccc(Cl)c1)C1CCN(S(=O)(=O)C2CC2)CC1 (stereo not shown) [Example 34, 2-(3-Chloro-phenyl)-1-(1-cyclopropanesulphonyl-piperidin-4-yl)-ethylamine]"
22,101 to 1000,Cn1nc(C(F)(F)F)cc1C(=O)N1CCC(C(N)Cc2cccc(Cl)c2)CC1 (stereo not shown) [Example 31]
